Measured values as given in patent EP2769738B1, “Conjugated TLR7 and/or TLR8 and TLR2 polycationic agonists” (Invivogen, priority 2013, dated 2014).

How the values were obtained:
[1] = system: endogenous TLR2 and TLR7 in RAW-Blue™ Cells; assay: RAW-Blue Cells NF-κB/AP-1 SEAP reporter assay (endogenous receptors); type: cell-based, mouse; conditions: Figure 4; 10 µg/mL to 10 pg/ml, 24 hours, SEAP read as OD at 655 nm
Experimental: (§1) Cell-based assays were carried out using TLR7 and TLR2 reporter cell lines (InvivoGen). The reporter cell lines are engineered HEK293 cells, a human embryonic kidney cell line (ATCC, CRL-1573) that stably express either murine TLR7 (HEK-Blue™ mTLR7) or human TLR7 (HEK-Blue™ hTLR7) or human TLR2 (HEK- Blue™ hTLR2) with an NF-κB-inducible secreted embryonic alkaline phosphatase (SEAP) as the reporter gene. The SEAP reporter gene is under the control of the NF-κB and AP-1-inducible promoter, which, upon treatment with a corresponding TLR ligand and activation of NF-κB and AP-1, induces the production of SEAP. Detection of SEAP is measured following culturing cells in HEK-Blue™ Detection media (InvivoGen). HEK-Blue™ Detection contains a SEAP substrate that when hydrolysed by SEAP produces a colorimetric change allowing for detection of SEAP as the protein is secreted. […] These assays were carried out using RAW-Blue™ Cells (InvivoGen), derived from RAW 264.7 mouse leukemic monocyte macrophage cell line (ATCC, CRL 2278) stably overexpressing a NF-κB /AP-1 inducible SEAP reporter constructs.
(§2) To perform the assay, cells were seeded on 96 well microliter plates at 50,000 or 100,000 cells per well for HEK-Blue™ Cells and RAW-Blue™ Cells respectively, and cultured at 37 °C in the presence of the conjugated compounds The TLR7-TLR2 polyamine molecules were prepared as follows: First, stock solutions of the conjugated compounds of the invention were prepared in ethanol or water to a concentration of 10 mg/ml.
(§3) The working dilutions of the conjugated TLR7-TLR2 polyamine agonists made up in water or PBS were directly added to the reporter cell lines at a final concentration ranging from 10 µg/mL to 10 pg/ml and incubated at 37 °C for 24 hours. After 24 hours of incubation, the effect on reporter gene activity was determined by reading the OD at 655 nm using iMark™ Microplate Reader (BIO-RAD).

[2] = target: T1, murine TLR7 (Mus musculus, UniProt P58681); assay: HEK-Blue mTLR7 NF-κB/AP-1-inducible SEAP reporter cell assay; type: cell-based; conditions: Figure 2; 10 µg/mL to 10 pg/ml, 24 hours, SEAP read as OD at 655 nm
T1 construct: host or cells: HEK293 (ATCC, CRL-1573), HEK-Blue mTLR7
T1 sequence (P58681 27-1050): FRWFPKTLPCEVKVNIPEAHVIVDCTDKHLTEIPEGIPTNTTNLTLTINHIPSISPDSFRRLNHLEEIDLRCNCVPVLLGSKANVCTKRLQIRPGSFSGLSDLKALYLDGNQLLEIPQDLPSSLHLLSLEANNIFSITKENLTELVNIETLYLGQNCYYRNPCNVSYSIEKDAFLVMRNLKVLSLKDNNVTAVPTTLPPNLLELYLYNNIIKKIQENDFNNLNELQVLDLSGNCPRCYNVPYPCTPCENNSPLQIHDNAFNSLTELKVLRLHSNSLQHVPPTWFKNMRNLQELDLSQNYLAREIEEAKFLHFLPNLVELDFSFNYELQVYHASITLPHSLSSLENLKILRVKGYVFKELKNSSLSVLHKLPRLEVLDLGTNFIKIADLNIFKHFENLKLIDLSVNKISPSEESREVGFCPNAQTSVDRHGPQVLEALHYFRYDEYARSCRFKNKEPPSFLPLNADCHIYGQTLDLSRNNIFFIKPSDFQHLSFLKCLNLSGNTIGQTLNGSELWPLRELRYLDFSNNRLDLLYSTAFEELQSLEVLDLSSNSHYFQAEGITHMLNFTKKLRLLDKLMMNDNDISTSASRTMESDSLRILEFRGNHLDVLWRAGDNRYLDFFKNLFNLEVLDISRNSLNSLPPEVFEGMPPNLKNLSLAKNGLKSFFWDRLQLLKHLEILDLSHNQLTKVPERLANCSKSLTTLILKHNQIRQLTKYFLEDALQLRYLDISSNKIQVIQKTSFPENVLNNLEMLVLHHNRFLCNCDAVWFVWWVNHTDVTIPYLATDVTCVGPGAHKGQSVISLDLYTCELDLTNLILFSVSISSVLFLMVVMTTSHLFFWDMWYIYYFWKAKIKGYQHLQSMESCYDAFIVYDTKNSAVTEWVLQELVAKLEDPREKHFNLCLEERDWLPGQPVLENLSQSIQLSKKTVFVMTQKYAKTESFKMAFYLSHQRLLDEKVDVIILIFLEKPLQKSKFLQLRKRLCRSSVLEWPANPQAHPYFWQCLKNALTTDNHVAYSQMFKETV
From the text: Assays for detecting TLR7, TLR8 or TLR2 activity are known in the art and include for example cell-based assays using respectively TLR7, TLR8 or TLR2 reporter cell lines (InvivoGen). The reporter cell lines are engineered HEK293 cells, a human embryonic kidney cell line (ATCC, CRL-1573) that stably express either murine TLR7 (HEK-Blue™ mTLR7) or human TLR7 (HEK-Blue™ hTLR7), human TLR8 (HEK-Blue™ hTLR8) or human TLR2 (HEK- Blue™ hTLR2) with an NF-κB-inducible secreted embryonic alkaline phosphatase (SEAP) as the reporter gene.
as §1, §2, §3

Row | ability to activate mTLR7 [2] | Compound | ability to activate endogenous TLR2 and TLR7 in RAW-Blue™ Cells [1]
1 | activate mTLR7 | CCCCCCCCCCCCCCCC(=O)OCC(CSC[C@H](N)C(=O)N[C@@H](COC(=O)c1ccc(Cn2c(O)nc3c(N)nc(NCCCC)nc32)cc1)C(=O)NCCCNCCCCNCCCN)OC(=O)CCCCCCCCCCCCCCC (stereo partly drawn) [CL514, (6R,9S)-6,23-diamino-9-((4-((6-amino-2-(butylamino)-8-hydroxy-9H-purin-9-yl)methyl)benzoyloxy)methyl)-7,10-dioxo-4-thia-8,11,15,20-tetraazatricosane-1,2-diyl dipalmitate] | activate endogenous TLR2 and TLR7
2 | activate mTLR7 | CCCCCCCCCCCCCCCC(=O)OCC(CSC[C@H](N)C(=O)N[C@@H](CCC(=O)NCCCNCCCCNCCCN)C(=O)Nc1ccc(Cn2c(O)nc3c(N)nc(NCCCC)nc32)cc1)OC(=O)CCCCCCCCCCCCCCC (stereo partly drawn) [CL527, (6R,9S)-6,25-diamino-9-(4-((6-amino-2-(butylamino)-8-hydroxy-9H-purin-9-yl)methyl)phenylcarbamoyl)-7,12-dioxo-4-thia-8,13,17,22-tetraazapentacosane-1,2-diyl dipalmitate] | activate endogenous TLR2 and TLR7
3 | activate mTLR7 | CCCCCCCCCCCCCCCC(=O)OCC(CSC[C@H](N)C(=O)NCCCNCCCCNCCCNC(=O)CNC(=O)c1ccc(Cn2c(O)nc3c(N)nc(NCCCC)nc32)cc1)OC(=O)CCCCCCCCCCCCCCC (stereo partly drawn) [CL553, (20R)-20-amino-1-(4-((6-amino-2-(butylamino)-8-hydroxy-9H-purin-9-yl)methyl)phenyl)-1,4,19-trioxo-22-thia-2,5,9,14,18-pentaazapentacosane-24,25-diyl dipalmitate] | activate endogenous TLR2 and TLR7

Continued, molecule first:

Row | Compound | ability to activate mTLR7 [2] | ability to activate endogenous TLR2 and TLR7 in RAW-Blue™ Cells [1]
4 | CCCCCCCCCCCCCCCC(=O)OCC(CSC[C@H](N)C(=O)N[C@@H](CCCCNC(=O)CNC(=O)c1ccc(Cn2c(O)nc3c(N)nc(NCCCC)nc32)cc1)C(=O)NCCCNCCCCNCCCN)OC(=O)CCCCCCCCCCCCCCC (stereo partly drawn) [CL475, (6R,9S)-6,23-diamino-9-(4-(2-(4-((6-amino-2-(butylamino)-8-hydroxy-9H-purin-9-yl)methyl)benzamido)acetamido)butyl)-7,10-dioxo-4-thia-8,11,15,20-tetraazatrico sane-1,2-diyl dipalmitate] | activate mTLR7 | activate endogenous TLR2 and TLR7
5 | CCCCCCCCCCCCCCCC(=O)OCC(CSC[C@H](N)C(=O)NCCCC[C@H](NC(=O)c1ccc(Cn2c(O)nc3c(N)nc(NCCCC)nc32)cc1)C(=O)NCCCNCCCCNCCCN)OC(=O)CCCCCCCCCCCCCCC (stereo partly drawn) [CL486, (6R,13S)-6,27-diamino-13-(4-((6-amino-2-(butylamino)-8-hydroxy-9H-purin-9-yl)methyl)benzamido)-7,14-dioxo-4-thia-8,15,19,24-tetraazaheptacosane-1,2-diyl dipalmitate] | activate mTLR7 | activate endogenous TLR2 and TLR7
6 | CCCCCCCCCCCCCCCC(=O)OCC(CSC[C@H](N)C(=O)NCCCC[C@H](NC(=O)CNC(=O)c1ccc(Cn2c(O)nc3c(N)nc(NCCCC)nc32)cc1)C(=O)NCCCNCCCCNCCCN)OC(=O)CCCCCCCCCCCCCCC (stereo partly drawn) [CL487, (6R,13S)-6,27-diamino-13-(2-(4-((6-amino-2-(butylamino)-8-hydroxy-9H-purin-9-yl)methyl)benzamido)acetamido)-7,14-dioxo-4-thia-8,15,19,24-tetraazaheptacosane-1,2-diyl dipalmitate] | activate mTLR7 | activate endogenous TLR2 and TLR7
